Here are results for one compound from patent US20250120928A1 (University of Maryland, Baltimore, priority 2021, published 2025).

pIC50: −log10 of the molar value. “Also recorded” adds a separate entry of the source.

Data set [1] has as its system BMMØs. The data set can be described thus: Western blot analysis of acetyl-histone H3 and acetyl-α-tubulin. To be noted: 10 μM, unstimulated BMMØs, 4 and 9 hours. A general note: In western blotting, separated proteins are transferred to a membrane and probed.
Protocol: Day 8 BMMØs were seeded at 1×10^6 cells/well in sterile 6-well plates incubated at 37° C. and 5% CO2 overnight to allow for cell adherence. […] Cells were lysed with Halt™ Protease Inhibitor Cocktail (Cat #78429) (Thermo Fisher, Waltham MA) in RIPA Buffer (Cat #R0278) (Sigma-Aldrich, St. Louis, MO) and scraped with a cell scraper (VWR, Radnor, PA). Lysates were sonicated with a ⅛^th needle tip using a Cole-Parmer 500-Watt Ultrasonic Homogenizer at 40% amplitude for 10 seconds on ice. Lysates were then centrifuged at 4° C. for 20 minutes at 12,000×g. The supernatant was collected and frozen at −80° C. until ready for western blot analysis. Protein lysates were produced using 50/50 sample to 2×SDS/PAGE sample buffer. Proteins were then separated by SDS/PAGE and immunoblotted using Histone H3 (D1H2) XP, Acetyl-Histone H3 (lys9/Lys14), α-Tubulin (11H10), Acetyl-α-Tubulin (Lys40) (D20G3) XP and β-Actin as primary antibodies. ECL was used for detection.
Day 8 BMMØs were seeded at 1×10^6 cells/well in sterile 6-well plates incubated at 37° C. and 5% CO2 overnight to allow for cell adherence. […] Cells were lysed with Halt™ Protease Inhibitor Cocktail (Cat #78429) (Thermo Fisher, Waltham MA) in RIPA Buffer (Cat #R0278) (Sigma-Aldrich, St. Louis, MO) and scraped with a cell scraper (VWR, Radnor, PA). Lysates were sonicated with a ⅛th needle tip using a Cole-Parmer 500-Watt Ultrasonic Homogenizer at 40% amplitude for 10 seconds on ice. Lysates were then centrifuged at 4° C. for 20 minutes at 12,000×g. The supernatant was collected and frozen at −80° C. until ready for western blot analysis. Protein lysates were produced using 50/50 sample to 2×SDS/PAGE sample buffer. Proteins were then separated by SDS/PAGE and immunoblotted using Histone H3 (D1H2) XP, Acetyl-Histone H3 (Lys9/Lys14), α-Tubulin (11H10), Acetyl-α-Tubulin (Lys40) (D20G3) XP and β-Actin as primary antibodies. ECL was used for detection.
Data set [2] relates to LPS-induced endotoxemia mouse model. The data set can be described thus: Plasma cytokine analysis in the LPS-induced endotoxemia mouse model. To be noted: 50 mg/kg i.p. 3 hours before 20 mg/kg LPS i.p.; blood 3 hours post-LPS. It is filed as in vivo, male C57BL/6J mice. The procedure: Terminal cardiac blood draws from the left ventricle occurred 3 hours post LPS injections using a 25 g needle and 1 mL syringe into an EDTA coated lavender blood collection tube (BD Medical, Franklin Lakes, NJ). Blood samples were centrifuged at 1000×g for 10 minutes within 30 minutes of collection. Plasma was extracted and diluted 10,000-fold for ELISA IL-6 measurement and diluted 10-fold for TNFα measurements.
Terminal cardiac blood draws from the left ventricle occurred 3 hours post LPS injections using a 25 g needle and 1 mL syringe into an EDTA coated lavender blood collection tubes (BD Medical, Franklin Lakes, NJ). Blood samples were centrifuged at 1000×g for 10 minutes within 30 minutes of collection. Plasma was extracted and diluted 10,000-fold for ELISA IL-6 measurement and diluted 10-fold for TNFα measurements. MAGPIX Luminex bead-based multiplex ELISA (Thermo Fisher Scientific, Waltham, MA) of mouse plasma (diluted 100-fold) measured for 26 various cytokines and chemokines and data was analyzed using the Luminex xPONENT software (Millipore) as per manufacturer's instructions. The 26-plex panel include murine IL-1β, IL-2, IL-4, IL-5, IL-6, IL-9, IL-10, IL-12p70, IL-13, IL-17A (CTLA-8), IL-18, IL-22, IL-23, IL-27, GM-CSF, IFNγ, TNFα, MCP-1 (CCL2), MIP-1α (CCL3), MIP-10 (CCL4), RANTES (CCL5), MCP-3 (CCL7), Eotaxin (CCL11), GROα (CXCL1), MIP-2a (CXCL2), and IP-10 (CXCL10).

Data set [3] relates to B cells (B220+) isolated from splenocytes. The data set can be described thus: Splenocyte apoptosis and cell death by AV/PI flow cytometry, B cells. It is filed as cell-based. Here is the method: Splenocytes were isolated from spleens as previously described. Briefly, 5-12-week C57BL/6J female mice were euthanized and the spleen was isolated. The spleen was processed into single-cell suspensions using a 40 μm cell strainer and flushed with cold PBS supplemented with 1% FBS and 0.4% 0.5 M EDTA (Quality Biological, Gaithersburg, MD). Erythrocytes were lysed with ACK lysis buffer (Quality Biological, Gaithersburg, MD). […] Subsequently, splenocytes were stimulated with 100 ng/mL LPS for 24 hours. Splenocytes were then washed with cold PBS supplemented with 1% FBS and 0.4% 0.5 M EDTA and FcR blocked, as previously mentioned. Splenocytes were then stained with purified anti-mouse PE/Cyanine7 CD45R/B220 antibody (#103222) (BioLegend, San Diego, CA) for the B cell population. SAHA and SAHA-OH apoptosis and cell death were then assessed using the FITC-AV Apoptosis Detection Kit with PI via flow cytometry, as previously mentioned. Flow cytometry data were collected using a Cytex Aurora flow cytometer. Flow plots and data processing was done using FCS Express 7 Flow Cytometry De Novo Software (De Novo, Glendale, CA).
(Flow cytometry measures light scatter and fluorescence of single cells or particles in a stream.)

Another data set concerns unstimulated BMMØs. The data set can be described thus: MTS assay. To be noted: Mus musculus; unstimulated BMMØs treated for 48 hours; read-out: IC50 (MTS assay, cellular proliferation). It is filed as cell-based, C57BL/6J mice. Here is the method:
Cells were then washed with PBS and 50 μL of MTS solution was added to each well and incubated for 1 hour. The optical density (O.D.) of the solution was measured using a SpectraMax iD3 microplate reader at 570 nm. The percentage of cell proliferation was measured as the ratio of O.D. at 570 nm to no treatment control. IC50 values were calculated using GraphPad Prism 9 program based on a sigmoidal dose-response equation.
(In general: Formazan colour is commonly taken as a measure of viable cells.)

Data set [4] concerns BMMØs. It is filed as cell-based. Particulars: 0-30 μM. The procedure:
(§1) Three hours later, cells were stimulated with 100 ng/mL LPS. After 48 hours, cells were lifted using Versene and washed with cold PBS supplemented with 1% FBS and 0.4% 0.5 M EDTA (Quality Biological, Gaithersburg, MD). FcR blocking was performed with purified anti-mouse CD16/32 antibody (#101301) (Biolegend, San Diego, CA) prior to staining with Annexin V-FITC and propidium iodide kit (#640914) (BioLegend, San Diego, CA) for apoptosis and cell death. Cell staining was conducted according to BioLegend protocols for flow cytometry. Flow cytometry data were collected using a Becton Dickinson LSR II or Becton Dickinson Canto II flow cytometer. Flow plots and data processing was done using FCS Express 7 Flow Cytometry De Novo Software (De Novo, Glendale, CA).
as §1, with “After” for “Three hours later, cells were stimulated with 100 ng/mL LPS. After”

On to `O=C(CCCCCCC(=O)Nc1ccc(CO)cc1)NO` [SAHA-OH, N^1-hydroxy-N^8-(4-(hydroxymethyl)phenyl)octanediamide], for which, in the data set on BMMØs [1], the “acetylation of histone H3” value is recorded as “slight decrease in histone H3 acetylation compared to SAHA; also recorded: reduced Ac—H3 activity compared to SAHA” and the “acetylation of α-tubulin” value is listed as “similarly resulted in the acetylation; also recorded: similar”. In data set [2], the “reduction of plasma IL-6” value is on record as “about 50%” and the “reduction of plasma TNFα” value is given as “about 50%”. In data set [3] (0-30 μM), the “toxicity profile for the B cell population” value is on record as “concentration-dependent toxicity profiles”. For the same compound, in data set [3] (10 μM), the “decrease in cell death of the B cell population versus SAHA” value was 3 fold and the “enhancement in viability of the B cell population versus SAHA” value was 5 fold. Besides, the pIC50 in the data set on unstimulated BMMØs is 5.89. Besides, in the data set on BMMØs [4], the “apoptosis (AV+/PI−) over concentration” value is “apoptosis induction” and the “viability (AV−/PI−) over concentration” value is listed as “concentration-dependent viability reduction”.
